# Assay results taken from patent publication US20260209152A1, “Substituted Hydroxystilbene Compounds and Derivatives, Synthesis and Uses Thereof” (Kynan Duke IP, LLC, priority 2019, published 2026).
# Where two headings read alike, the source gives them in different places.
# How the values were obtained:
# Assay in all cases: CellTiter Glo cell viability assay
# Breast 4T1 = assay type: cell-based; conditions: Table 5B: 11 dilutions 3-0.00001 μM; Exp N
# Protocol: (§1) 1.7*10^3 cells/well were seeded in quadruplicates in 96-well plate after plating. Drugs were added at 5 μM and 2-fold dilutions over 18 concentrations (0.000038146-5 […] range) to generate a dose-response curve. Cell growth was assessed on day 1, 3 and 5 after drug treatments using the CellTiter Glo Luminescence Cell Viability Assay (Promega) according to manufacturer's protocol. Thermo Scientific Varioskan LUX Multimode Microplate instrument was used for plate reading. Data are expressed as mean luminescence (arbitrary units) ±S.D.
# (§2) Cell Viability Assays were employed to determine the concentration of Compound 1 (KYN-001) and analogues where the response is reduced by half. For each treatment of cancer cells, 1, 2, 5, 10 and 20 μM solutions of compounds were applied. GraphPad Prism 7 software was used to fit dose response curves. Relative Luminescence Units were plotted against the log values of the doses used and the nonlinear regression model was used for data analysis.
# [1] = tested on: Muscle Ewing's Sarcoma A-673/CRL-1598; assay type: cell-based; conditions: Homo sapiens, A673, 11 dilutions 3-0.00001 μM
# Protocol: as §1, §2
# (§3) IC50 (μM) values correspond to log(inhibitor) vs. response (four parameters) and dose-response graphs were generated using GraphPad Prism8.
# [2] = tested on: Neuroblastoma CHP-212/CRL-2273; assay type: cell-based; conditions: Homo sapiens, 11 dilutions 3-0.00001 μM
# Protocol: as §1, §2, §3
# [3] = tested on: Neuroblastoma SK-N-DZ/CRL-2149; assay type: cell-based; conditions: Homo sapiens, 11 dilutions 3-0.00001 μM
# Protocol: as §1, §2, §3
# [4] = tested on: Liver cancer SNU-449/CRL-2234; assay type: cell-based; conditions: Homo sapiens, 11 dilutions 3-0.00001 μM
# Protocol: as §1, §2, §3
# [5] = tested on: Colon cancer SW620/CCL-227; assay type: cell-based; conditions: Homo sapiens, SW-620, 11 dilutions 3-0.00001 μM
# Protocol: as §1, §2, §3
# [6] = tested on: Colon cancer HT-29/HTB-38; assay type: cell-based; conditions: Homo sapiens, 11 dilutions 3-0.00001 μM
# Protocol: as §1, §2, §3
# [7] = tested on: Osteosarcoma MG-63/CRL-1427; assay type: cell-based; conditions: Homo sapiens, 11 dilutions 3-0.00001 μM
# Protocol: as §1, §2, §3
# [8] = tested on: Neuroblastoma SK-N-FI/CRL-2142; assay type: cell-based; conditions: Homo sapiens, 11 dilutions 3-0.00001 μM
# Protocol: as §1, §2, §3
# [9] = tested on: Neuroblastoma BE(2)-C/CRL-2268; assay type: cell-based; conditions: Homo sapiens, 11 dilutions 3-0.00001 μM
# Protocol: as §1, §2, §3
# Osteosarcomas U2OS = assay type: cell-based, human; conditions: for IC50: Homo sapiens, U2OS, 72 h, 3 Days of treatment, 18 2-fold dilutions 5-0.00003 μM
# Outline: (§4)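 Cells seeded at 1.7*10^3/well in quadruplicate; compounds at 18 two-fold dilutions from 5 μM (0.000038146-5 μM), or at 1, 2, 5, 10 and 20 μM. CellTiter Glo luminescence read on days 1, 3 and 5 after treatment. IC50 by nonlinear regression of luminescence versus log dose.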
# Ewing's Sarcoma HTB-166 = assay type: cell-based, human; conditions: for IC50: Homo sapiens
# Outline: as §4
# Pharynx FADU = assay type: cell-based, human; conditions: for IC50: Homo sapiens
# Outline: as §4
# Bladder RT-112 = assay type: cell-based, human; conditions: for IC50: Homo sapiens
# Outline: as §4
# Pancreatic PANC-1 = assay type: cell-based, human; conditions: for IC50: Homo sapiens
# Outline: as §4
# Lung NCI-H1437 = assay type: cell-based, human; conditions: for IC50: Homo sapiens
# Outline: as §4
# Leiomyosarcoma SK-LMS-1 = assay type: cell-based, human; conditions: for IC50: Homo sapiens, SK-LMS-1, 72 h, 3 Days of treatment, 18 2-fold dilutions 5-0.00003 μM
# Outline: as §4
# [10] = tested on: Hypo-pharynx UPCI: SCC152; assay type: cell-based, human; conditions: for IC50: Homo sapiens
# Outline: as §4
# Liver JHH-6 = assay type: cell-based, human; conditions: for IC50: Homo sapiens, 72 h, 3 Days of treatment, 18 2-fold dilutions 5-0.00003 μM
# Outline: as §4
# Tongue SCC-15 = assay type: cell-based, human; conditions: for IC50: Homo sapiens, SCC-15, 72 h, 3 Days of treatment, 18 2-fold dilutions 5-0.00003 μM
# Outline: as §4
# Tongue SCC-4 = assay type: cell-based, human; conditions: for IC50: Homo sapiens
# Outline: as §4
# Pharynx DETROIT = assay type: cell-based, human; conditions: for IC50: Homo sapiens
# Outline: as §4
# Osteosarcomas KHOS_312H = assay type: cell-based, human; conditions: for IC50: Homo sapiens, 72 h, 3 Days of treatment, 18 2-fold dilutions 5-0.00003 μM
# Outline: as §4
# Lung NCI-H1563 = assay type: cell-based, human; conditions: for IC50: Homo sapiens
# Outline: as §4
# Bladder 5637 = assay type: cell-based, human; conditions: for IC50: Homo sapiens
# Outline: as §4
# [11] = 72 h, 3 Days of treatment, 18 2-fold dilutions 5-0.00003 μM, read-out: Average IC50
# [12] = RD-ES/HTB-166, 11 dilutions 3-0.00001 μM, read-out: IC50
# [13] = FaDu, 72 h, 3 Days of treatment, 18 2-fold dilutions 5-0.00003 μM, read-out: Average IC50
# [14] = Fadu/HTB-43, 11 dilutions 3-0.00001 μM, read-out: IC50
# [15] = RT-112, 72 h, 3 Days of treatment, 18 2-fold dilutions 5-0.00003 μM, read-out: Average IC50
# [16] = RT-112, 72 h, Table 4: 3 Days of treatment, 18 2-fold dilutions 5-0.00003 μM, Average (1, 8) or single Exp A-D, read-out: IC50
# [17] = RT-112, 120 h, Day 5 upon drug treatment, 10 dosages 0.0001-20 μM (Compound 8: 18 dosages 0.000038146 to 5 μM), read-out: IC50
# [18] = PANC-1, 72 h, 3 Days of treatment, 18 2-fold dilutions 5-0.00003 μM, read-out: Average IC50
# [19] = PANC-1/CRL-1469, 11 dilutions 3-0.00001 μM, read-out: IC50
# [20] = NCI-H1437, 72 h, 3 Days of treatment, 18 2-fold dilutions 5-0.00003 μM, read-out: Average IC50
# [21] = NCI-H1437/CRL-5872, 11 dilutions 3-0.00001 μM, read-out: IC50
# [22] = UPCI: SCC152/CRL-3240, 11 dilutions 3-0.00001 μM, read-out: IC50
# [23] = SCC-4, 72 h, 3 Days of treatment, 18 2-fold dilutions 5-0.00003 μM, read-out: Average IC50
# [24] = SCC-4/CRL-1624, 11 dilutions 3-0.00001 μM, read-out: IC50
# [25] = Detroit 562/CCL-138, 11 dilutions 3-0.00001 μM, read-out: IC50
# [26] = NCI-H1563, 72 h, 3 Days of treatment, 18 2-fold dilutions 5-0.00003 μM, read-out: Average IC50
# [27] = NCI-H1563/CRL-5875, 11 dilutions 3-0.00001 μM, read-out: IC50
# [28] = 120 h, Day 5 upon drug treatment, 10 dosages 0.0001-20 μM (Compound 8: 18 dosages 0.000038146 to 5 μM), read-out: IC50
# [29] = IC50 of 1 [KYN-001] vs 8 [KYN-119], 3 Days
smiles,measurement,setting,value
"COc1cc(/C=C/c2cc(O)cc(OC)c2CC=C(C)C)ccc1O [Compound 1, (E)-3-(4-hydroxy-3-methoxystyryl)-5-methoxy-4-(3-methylbut-2-en-1-yl)phenol]",IC50,Breast 4T1,117 nM
same,IC50,[1],471 nM
same,IC50,[2],28.1 nM
same,IC50,[3],132 nM
same,IC50,[4],81.8 nM
same,IC50,[5],121 nM
same,IC50,[6],1560 nM
same,IC50,[7],44.1 nM
same,IC50,[8],116 nM
same,IC50,[9],67.1 nM
same,IC50,Osteosarcomas U2OS,325 nM
same,IC50,Ewing's Sarcoma HTB-166; [11],257 nM
same,IC50,Ewing's Sarcoma HTB-166; [12],310 nM
same,IC50,Pharynx FADU; [13],74.4 nM
same,IC50,Pharynx FADU; [14],139 nM
same,IC50,Bladder RT-112; [15],52.9 nM
same,IC50,"Bladder RT-112; RT-112, 72 h, Day 3 upon drug treatment, 10 dosages 0.0001-20 μM, read-out: IC50",105 nM
same,IC50,Bladder RT-112; [16],27 nM
same,IC50,Bladder RT-112; [17],28.7 nM
same,IC50,Pancreatic PANC-1; [18],107 nM
same,IC50,Pancreatic PANC-1; [19],110 nM
same,IC50,Lung NCI-H1437; [20],347 nM
same,IC50,Lung NCI-H1437; [21],143 nM
same,IC50,Leiomyosarcoma SK-LMS-1,65.9 nM
same,IC50,[10]; [11],46.3 nM
same,IC50,[10]; [22],140 nM
same,IC50,Liver JHH-6,172 nM
same,IC50,Tongue SCC-15,17 nM
same,IC50,Tongue SCC-4; [23],100 nM
same,IC50,Tongue SCC-4; [24],39.5 nM
same,IC50,Pharynx DETROIT; [11],1170 nM
same,IC50,Pharynx DETROIT; [25],131 nM
same,IC50,Osteosarcomas KHOS_312H,356 nM
same,IC50,Lung NCI-H1563; [26],449 nM
same,IC50,Lung NCI-H1563; [27],184 nM
same,IC50,Bladder 5637; [11],34.7 nM
same,IC50,Bladder 5637; [28],30.6 nM
"CCOc1cc(O)cc(/C=C/c2ccc(O)c(OC)c2)c1CC=C(C)C [Compound 8, (E)-3-Ethoxy-5-(4-hydroxy-3-methoxystyryl)-4-(3-methylbut-2-en-1-yl)phenol]",IC50,[1],157 nM
same,IC50,[2],9.8 nM
same,IC50,[3],50.1 nM
same,IC50,[4],32.5 nM
same,IC50,[5],35.5 nM
same,IC50,[6],939 nM
same,IC50,[7],18.2 nM
same,IC50,[8],26.6 nM
same,IC50,[9],25.9 nM
same,IC50,Osteosarcomas U2OS,36.8 nM
same,Fold IC50,Osteosarcomas U2OS; [29],8.8
same,IC50,Ewing's Sarcoma HTB-166; [11],49.2 nM
same,IC50,Ewing's Sarcoma HTB-166; [12],163 nM
same,Fold IC50,Ewing's Sarcoma HTB-166; [29],5.2
same,IC50,Pharynx FADU; [13],37.1 nM
same,IC50,Pharynx FADU; [14],54.1 nM
same,Fold IC50,Pharynx FADU; [29],2.0
same,IC50,Bladder RT-112; [15],3.63 nM
same,IC50,Bladder RT-112; [16],4.09 nM
same,IC50,Bladder RT-112; [17],~5.65 nM
same,Fold IC50,Bladder RT-112; [29],15
same,IC50,Pancreatic PANC-1; [18],11.5 nM
same,IC50,Pancreatic PANC-1; [19],31.4 nM
same,Fold IC50,Pancreatic PANC-1; [29],9.3
same,IC50,Lung NCI-H1437; [20],16.6 nM
same,IC50,Lung NCI-H1437; [21],32.7 nM
same,Fold IC50,Lung NCI-H1437; [29],21
same,IC50,Leiomyosarcoma SK-LMS-1,17.5 nM
same,Fold IC50,Leiomyosarcoma SK-LMS-1; [29],3.8
same,IC50,[10]; [11],23 nM
same,IC50,[10]; [22],54.9 nM
same,Fold IC50,[10]; [29],2.0
same,IC50,Liver JHH-6,36.4 nM
same,Fold IC50,Liver JHH-6; [29],4.7
same,IC50,Tongue SCC-15,14.9 nM
same,Fold IC50,Tongue SCC-15; [29],1.1
same,IC50,Tongue SCC-4; [23],23.9 nM
same,IC50,Tongue SCC-4; [24],23.2 nM
same,Fold IC50,Tongue SCC-4; [29],4.2
same,IC50,Pharynx DETROIT; [11],438 nM
same,IC50,Pharynx DETROIT; [25],76.6 nM
same,Fold IC50,Pharynx DETROIT; [29],2.7
same,IC50,Osteosarcomas KHOS_312H,36.7 nM
same,Fold IC50,Osteosarcomas KHOS_312H; [29],9.7
same,IC50,Lung NCI-H1563; [26],19.5 nM
same,IC50,Lung NCI-H1563; [27],54.5 nM
same,Fold IC50,Lung NCI-H1563; [29],23
same,IC50,Bladder 5637; [11],3.91 nM
same,IC50,Bladder 5637; [28],~9.43 nM
same,Fold IC50,Bladder 5637; [29],8.9
"COc1cc(/C=C/c2cc(O)cc(OC)c2CC=C(C)C)ccc1NC=O [Compound 27, (E)-N-(4-(5-hydroxy-3-methoxy-2-(3-methylbut-2-en-1-yl)styryl)-2-methoxyphenyl)formamide]",IC50,Breast 4T1,29.2 nM
same,IC50,[1],229 nM
same,IC50,[2],5.7 nM
same,IC50,[3],32.6 nM
same,IC50,[4],15.1 nM
same,IC50,[5],31.7 nM
same,IC50,[6],432 nM
same,IC50,[7],82.5 nM
same,IC50,[8],15.7 nM
same,IC50,[9],13.6 nM
same,IC50,Ewing's Sarcoma HTB-166; [12],133 nM
same,IC50,Pharynx FADU; [14],28.6 nM
same,IC50,Pancreatic PANC-1; [19],28.8 nM
same,IC50,Lung NCI-H1437; [21],32.2 nM
same,IC50,[10]; [22],36.6 nM
same,IC50,Tongue SCC-4; [24],11.4 nM
same,IC50,Pharynx DETROIT; [25],20.3 nM
same,IC50,Lung NCI-H1563; [27],59.8 nM
